Assay results: patent US12048686B2, “Compositions and methods for activating NRF2-dependent gene expression” (The University of Chicago, priority 2018, dated 2024)

Assays:
Assay type in all cases: cell-based
[1] = tested on: NRF2-dependent luciferase reporter (pTI-ARE-LUC); experiment: ARE-LUC reporter assay in HEK293T cells with PGK1 knockdown or overexpression
Description: FIG. 1A-D. CBR-470-1-dependent inhibition of glycolysis activates NRF2 signaling. […] PGK1, Actin and Tubulin protein levels are shown from representative experiments (n=3). (c) Heat map depiction of relative metabolite levels in IMR32 cells treated for 30 min with CBR-470-1 (left) or viral shRNA knockdown of PGK1 (right) relative to DMSO and scramble shRNA controls, respectively. BPG refers to both 2,3-BPG and 1,3-BPG, whereas 1,3-BPG specifically refers to the 1,3-isomer.
High throughput screening and ARE-LUC reporter assay. For high throughput screening, IMR32 cells were plated at 5×10^3 cells per well in white 384-well plates in 40 μL of growth medium. […] After 24 hour incubation, ARE-LUC luminance values were recorded on an Envision instrument after the addition of 30 μL of Bright Glo reagent solution (Promega, diluted 1:3 in water). […] For overexpression and knockdown experiments in HEK293T with ARE-LUC reporter readouts, 5×10^5 cells were plated on poly-d-lysine coated plates and transfected with 1.5 μg of overexpression or shRNA plasmid and 500 ng of pTI-ARE-LUC using Optimem medium and Fugene in the same mode as above. […] ARE-LUC luminance values were recorded on an Envision plate reader 24 hours later by the addition of 75 μL of Bright Glo reagent solution (1:3 in water).

[2] = tested on: IMR32 cells; experiment: Targeted LC-MS measurement of cellular MGx levels in IMR32 cells; conditions: relative to DMSO
Description: FIG. 8A-H. MGx and glyoxylase activity regulates NRF2 activation. CBR-470-1 causes elevated MGx levels in cells. (a) Schematic depicting chemical derivatization and trapping of cellular MGx for analysis by targeted metabolomics using two unique fragment ions. (b, c) Daughter ion fragments (b) and resulting MS/MS quantification of MGx levels (c) in IMR32 cells treated with CBR-470-1, relative to DMSO (n=4). (d) Quantitative LC-MS/MS measurement of cellular MGx levels in IMR32 cells treated for 2 hours with CBR-470-1 or co-treated for 2 hours with CBR-470-1 and NAC (2 mM) relative to DMSO (n=4).
Quantitative Metabolomic Profiling. […] Metabolite peak transitions and retention times are listed in Table 2 and were confirmed by running standards for measured glycolytic, PPP, CAC and co-factor metabolites. 2-phosphoglycerate and 3-phosphoglycerate isomers were quantified in aggregate (2PG/3PG). Relative metabolite abundance was quantified by integrated peak area for the given MRM-transition, and all metabolite levels were normalized to internal standard extracted ion intensity values for d3-serine. These parameters were used to quantify all metabolites, with the exception of 1,3-BPG and MGx, which required chemical derivitization to stable intermediates prior to LC-MS/MS quantification, as previously reported^20, 33. […]

[3] = tested on: alveolar macrophages; experiment: PM exposure of alveolar macrophages (Example 6)
Description: FIG. 30A-D. CBR-470 activates NRF2 and inhibits PM-induced inflammatory cytokine production from alveolar macrophages. (a-c) Indicated transcript levels in response to PM exposure for 4 hr in the presence and absence of CBR-470, PGK1 inhibitor (10 micromolar). (d) Western blot analysis of NRF2 protein levels under the conditions in a-c.
FIG. 31. Time dependent effects of CBR-470-1 on alveolar macrophage cytokine mRNA levels at specific timepoints
FIG. 32. […] This represents a distinct mechanism of action compared to many other pharmacologic NRF2 activators, which achieve efficacy through induction of ROS (reactive oxygen species).
Indicated transcript levels in response to PM exposure for 4 hr in the presence and absence of CBR-470-1, PGK1 inhibitor (10 micromolar). Western blot analysis of NRF2 protein levels. PM-exposure also results in activation of the NRF2 pathway, which is confirmed by increased transcript levels of its prototypical target Nqo1 (FIG. 30c) and NRF2 protein accumulation (FIG. 30d). […] FIG. 31 illustrates time dependent effects of CBR-470-1 on alveolar macrophage cytokine mRNA levels at specific timepoints. […] This represents a distinct mechanism of action compared to many other pharmacologic NRF2 activators, which achieve efficacy through induction of ROS (reactive oxygen species).

[4] = control and PM-treated cells, PM 4 hr

CC(C)CN[C@H]1CS(=O)(=O)C[C@@H]1S(=O)(=O)c1ccc(Cl)cc1 [CBR-470-1]
EC50 of ARE-LUC reporter activation ([1]; knockdown of PGK1): decreased
EC50 of ARE-LUC reporter activation ([1]; overexpression of PGK1): increased
cellular MGx levels [2]: significant elevation of cellular MGx levels in the first few hours of treatment
ROS elevation ([3]; alveolar macrophages): does not cause significant ROS elevation in alveolar macrophages
overall cellular bioenergetics ([3]; alveolar macrophages): only a slight decrease in overall cellular bioenergetics
Il6 mRNA levels [3, 4]: dose-dependent decreases in 116 and Tnfα mRNA levels in both control and PM-treated cells
Tnfα mRNA levels [3, 4]: dose-dependent decreases in 116 and Tnfα mRNA levels in both control and PM-treated cells
NRF2-signaling (Nqo1 transcript, NRF2 protein) ([3]; control and PM-treated macrophages): activates NRF2-signaling in both control and PM-treated macrophages
